# Measurements taken from patent US9155691B2, “Composition for reducing skin wrinkles including PDE5 inhibitor” (SK Chemicals Co., Ltd., priority 2010, dated 2015).
# Key:
# [1] = tested on: UVB-induced skin wrinkles of hairless mice; assay: Wrinkle reduction in the skin of UVB-irradiated hairless mice (photographs); assay type: in vivo
# Method: An examination was made as to whether the PDE5 inhibitors can substantially reduce skin wrinkles of animal models. Hairless mice, aged 7 weeks, were irradiated with UVB (290-320 nm, 312 nm) to induce wrinkles. The compound or the control was applied to each mouse and its influence on the induced wrinkles was evaluated. More specifically, the mice were irradiated with 60 mJ/cm^2 (1 minimal […] dose (MED)) for 3 days weekly during the first and second week after wrinkling, 120 mJ/cm^2 (2 MED) for 3 days during the third week after wrinkling, 180 mJ/cm^2 (3 MED) for 3 days during the fourth week after wrinkling, 240 mJ/cm^2 (4 MED) for 3 days weekly during the fifth to eighth week after wrinkling, and 240 mJ/cm^2 (4 MED) for 5 days weekly during the ninth to fifteenth week after wrinkling. During the sixteenth and seventeenth week after wrinkling, about 0.5 ml of squalene-OOH, an oxidation product of squalene by UV irradiation, was applied once using a brush to induce deeper wrinkles. […]
# [2] = tested on: Normal human dermal fibroblasts (NHDFs); assay: Stimulatory effect on collagen production: synthesis rate of procollagen type I (C-peptide EIA, corrected for total protein); assay type: cell-based; conditions: NHDF, 48 hr, negative control 100.0±0.0%
# Method: In this example, stimulatory effects of major PDE5 inhibitors on collagen production were investigated in order to determine whether the PDE5 inhibitors are effective in reducing skin wrinkles. Collagen is a very important substance involved in the regulation of wrinkles. Collagen disruption is known to lead to the formation of wrinkles. Collagen production plays an important role in the reduction of wrinkles.
# Normal human dermal fibroblasts (NHDFs) were cultured in a complete medium. 400 μl (1×10^5 cells) of the NHDF culture was placed in each well of a 48-well plate and were cultured in an incubator (MCO-20 AIC, Sanyo, Japan) at 37 C.° and 5% CO2 for 24 hr. After completion of culturing, the culture fluid was discarded from the wells. 500 μl of D-phosphate buffered saline (D-PBS) was added to each well for washing. Thereafter, 800 μl of a test substance and 800 μl of a positive control were added to the corresponding wells. 800 μl of a serum-free medium supplemented with DMSO was added to the wells of a negative control. The culture was continued in an incubator at 37 C.° and 5% CO2 for 48 hr. After culturing was completed, the culture fluids were collected from the wells, followed by centrifugation (25 C.°, 3,000 rpm, 10 min). The supernatants were used for the quantification of procollagen type I. After 1 mL of D-PBS was added to each well of the plate, from which the culture fluids had been removed, for washing, 30 μl of a cell lysis buffer (Lot No.: 41, Cell Signaling Technology, U.S.A) was added to each well. The plate was frozen during storage in a deep freezer (DFU-657CL, Operon, Korea) at −70 C.° for 2 hr, and thawed at room temperature. The freeze-thaw procedure was repeated twice to lyse the cells. Each of the cell lysates was collected and centrifuged (Micro 17TR, Hanil Science Industrial, Korea) (4 C.°, 13000 rpm, 30 min). The supernatant was used for total protein quantification.
# 40 μl of the obtained supernatant was added to each well of a 96-well plate. A standard solution from a BCA protein assay kit (Lot No.: KK140637, Pierce Biotechnology Inc., USA) was diluted stepwise to different concentrations (250, 125, 50, 25, 5 and 0 μg/mL). 40 μl of the dilute solution was added to each well. 160 μl of a reagent mixture from the assay kit was added to each well. Thereafter, the resulting mixtures were allowed to react in an incubator (NB-201V, n-Biotec, Korea) at 60 C.° for 30 min. After completion of the reaction, the absorbance of each well was measured at 562 nm using an ELISA reader (PowerWave XS, BioTek Instruments, Inc., USA). The amounts of total proteins in the wells containing the test substance, the positive control and the negative control were determined by substituting the absorbance value of each well into the standard curve equation.
# 100 μl of the obtained supernatant was added to each well of a 96-well plate from a procollagen type I C-peptide EIA kit (Lot No.: AB01520C, Takara Bio Inc., Japan). A standard solution from the kit was diluted stepwise to different concentrations (640, 320, 160, 80, 40, 20, 10 and 0 ng/mL). 100 μl of the dilute solution was added to each well. Thereafter, the resulting mixtures were allowed to react in an incubator at 37 C.° for 2 hr. The reaction solution was discarded from each well. The well was washed with 400 μl of PBS (×3). 100 μl of solution 1 from the kit was added to each well. The reaction was carried out at 37 C.° for 1 hr. After completion of the reaction, the reaction solution was discarded from each well and 400 μl of PBS was added to the well for washing (×4). 100 μl of a tetramethylbenzidine (TMBZ) substrate solution from the kit was added to each well. The reaction was carried out at 30 C.° for 15 min. Thereafter, 100 μl of 1 N H2SO4 solution was added to each well to stop the reaction. The absorbance of each well was measured at 450 nm using an ELISA reader. […]
# [3] = 10 mM (about 5%), applied to skin twice daily for 14 days, n=7
structure (smiles),measurement,setting,value
CC1=C(/C=C/C(C)=C/C=C/C(C)=C/C(=O)O)C(C)(C)CCC1 [retinoic acid],Skin condition after application (cornified layers),"[1]; 0.05%, applied to skin twice, later once daily, n=6",Cornified layers were formed and continuously peeled
CCCc1nn(C)c2c(=O)[nH]c(-c3cc(S(=O)(=O)N4CCN(C)CC4)ccc3OCC)nc12 [sildenafil],Synthesis rate of procollagen type I,"[2]; 10 nM, mean of three repeats",108.6±8.1%
same,Synthesis rate of procollagen type I,"[2]; 100 nM, p<0.01",160.7±12.1%
same,Skin condition after application,[1]; [3],gradually became clean
same,Wrinkle reduction (skin photographs),[1]; [3],Wrinkle reduction was observed
CN1CC(=O)N2[C@H](c3ccc4c(c3)OCO4)c3[nH]c4ccccc4c3C[C@@H]2C1=O [tadalafil],Synthesis rate of procollagen type I,"[2]; 10 nM, mean of three repeats",147.2±8.1%
same,Synthesis rate of procollagen type I,"[2]; 100 nM, p<0.01",174.7±10.2%
CCCc1nc(C)c2c(=O)[nH]c(-c3cc(S(=O)(=O)N4CCN(CC)CC4)ccc3OCC)nn12 [vardenafil],Synthesis rate of procollagen type I,"[2]; 10 nM, mean of three repeats",140.7±7.8%
same,Synthesis rate of procollagen type I,"[2]; 100 nM, p<0.01",162.7±10.0%
